Reference: ChEMBL document CHEMBL5550214, “Expanding Structure-Activity Relationships of Human Urotensin II Peptide Analogues: A Proposed Key Role of the N-Terminal Region for Novel Urotensin II Receptor Modulators” (J Med Chem, 2024)
Calls of active or inactive are those of the source. The rule behind the calls is not given here. Where a SMILES comes first, the peptide text is derived from it. Bridges are numbered along the chain shown (N, C = ends). [ ]: non-standard residue; d: D form. Pen = CC(C)(S)[C@H](N)C(=O)O; Orn = NCCC[C@H](N)C(=O)O

Columns and labels:
[1] = molecular target: T1, Urotensin-2 receptor (Homo sapiens) (UniProt Q9UKP6); test: Modulation of human UTR stably expressed in HEK293 cells assessed as increase in Ca2+ level at 0.1 to 100 nM by Fura 2-AM dye based calcium mobilization assay; format: functional, cell-based; conditions: dose 0.1-100 nM
T1 sequence (whole entry): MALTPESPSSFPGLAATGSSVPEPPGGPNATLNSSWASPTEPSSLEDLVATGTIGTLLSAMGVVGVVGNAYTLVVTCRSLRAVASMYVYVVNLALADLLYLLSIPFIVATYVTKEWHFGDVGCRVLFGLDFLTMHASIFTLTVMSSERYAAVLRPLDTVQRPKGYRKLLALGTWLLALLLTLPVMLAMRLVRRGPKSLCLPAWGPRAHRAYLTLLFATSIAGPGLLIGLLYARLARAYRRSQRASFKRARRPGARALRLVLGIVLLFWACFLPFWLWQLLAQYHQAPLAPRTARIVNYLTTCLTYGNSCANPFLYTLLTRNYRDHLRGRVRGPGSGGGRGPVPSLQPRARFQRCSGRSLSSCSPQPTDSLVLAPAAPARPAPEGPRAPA

Aortic ring [2] = test: Induction of contraction in Albino Wistar rat aortic ring at 1 to 30 nM; format: functional, tissue-based; conditions: Aorta, dose 1-30 nM
Aortic ring [3] = test: Induction of contraction in Albino Wistar rat aortic ring assessed as Emax of hU-II at 10 uM incubated for 30 mins in presence of hU-II (reference value: 224.8 +/- 11.71 dyne/mg); format: functional, Aorta; conditions: 0.5 h
Aortic ring [4] = test: Induction of contraction in Albino Wistar rat aortic ring assessed as Emax of hU-II at 1 uM incubated for 30 mins in presence of hU-II (reference value: 251.4 +/- 15.43 dyne/mg); format: functional, Aorta; conditions: 0.5 h
Aortic ring [5] = test: Induction of contraction in Albino Wistar rat aortic ring assessed as Emax of hU-II at 0.1 uM incubated for 30 mins in presence of hU-II (reference value: 279.9 +/- 11.02 dyne/mg); format: functional, Aorta; conditions: 0.5 h
Aortic ring [6] = test: Induction of contraction in Albino Wistar rat aortic ring assessed as Emax of U-II(4-11) at 0.1 uM incubated for 30 mins in presence of U-II(4-11) (reference value: 159.8 +/- 7.39 dyne/mg); format: functional, Aorta; conditions: 0.5 h
Aortic ring [7] = test: Induction of contraction in Albino Wistar rat aortic ring assessed as Emax of U-II(4-11) at 1 uM incubated for 30 mins in presence of U-II(4-11) (reference value: 159.8 +/- 7.3 dyne/mg); format: functional, Aorta; conditions: 0.5 h
Aortic ring [8] = test: Induction of contraction in Albino Wistar rat aortic ring assessed as Emax of U-II(4-11) at 10 uM incubated for 30 mins in presence of U-II(4-11) (reference value: 152.4 +/- 5.1 dyne/mg); format: functional, Aorta; conditions: 0.5 h
Aortic ring [9] = test: Induction of contraction in Albino Wistar rat aortic ring assessed as Emax of [Ala1]U-II at 10 uM incubated for 30 mins in presence of [Ala1]U-II (reference value: 308.1 +/- 21.4 dyne/mg); format: functional, Aorta; conditions: 0.5 h
Aortic ring [10] = test: Induction of contraction in Albino Wistar rat aortic ring assessed as Emax of [Ala1]U-II at 1 uM incubated for 30 mins in presence of [Ala1]U-II (reference value: 220.3 +/- 17.48 dyne/mg); format: functional, Aorta; conditions: 0.5 h
Aortic ring [11] = test: Induction of contraction in Albino Wistar rat aortic ring assessed as Emax of [Ala1]U-II at 0.1 uM incubated for 30 mins in presence of [Ala1]U-II (reference value: 323 +/- 30.45 dyne/mg); format: functional, Aorta; conditions: 0.5 h
Aortic ring [12] = test: Induction of contraction in Albino Wistar rat aortic ring assessed as Emax of hU-II at 0.1 uM incubated for 30 mins in presence of hU-II (reference value: 224.8 +/- 11.71 dyne/mg); format: functional, Aorta; conditions: 0.5 h
Aortic ring [13] = test: Induction of contraction in Albino Wistar rat aortic ring assessed as Emax of hU-II at 10 uM incubated for 30 mins in presence of hU-II (reference value: 238.4 +/- 9.53 dyne/mg); format: functional, Aorta; conditions: 0.5 h
Aortic ring [14] = test: Induction of contraction in Albino Wistar rat aortic ring assessed as Emax of hU-II at 1 uM incubated for 30 mins in presence of hU-II (reference value: 214.5 +/- 10.51 dyne/mg); format: functional, Aorta; conditions: 0.5 h
Aortic ring [15] = test: Induction of contraction in Albino Wistar rat aortic ring assessed as Emax of U-II(4-11) at 1 uM incubated for 30 mins in presence of U-II(4-11) (reference value: 159.8 +/- 7.39 dyne/mg); format: functional, Aorta; conditions: 0.5 h
Aortic ring [16] = test: Induction of contraction in Albino Wistar rat aortic ring assessed as Emax of U-II(4-11) at 10 uM incubated for 30 mins in presence of U-II(4-11) (reference value: 159.8 +/- 7.3 dyne/mg); format: functional, Aorta; conditions: 0.5 h
Aortic ring [17] = test: Induction of contraction in Albino Wistar rat aortic ring assessed as Emax of U-II(4-11) at 0.1 uM incubated for 30 mins in presence of U-II(4-11) (reference value: 242.6 +/- 20.63 dyne/mg); format: functional, Aorta; conditions: 0.5 h
Aortic ring [18] = test: Induction of contraction in Albino Wistar rat aortic ring assessed as Emax of [Ala1]U-II at 1 uM incubated for 30 mins in presence of [Ala1]U-II (reference value: 308.1 +/- 21.4 dyne/mg); format: functional, Aorta; conditions: 0.5 h
Aortic ring [19] = test: Induction of contraction in Albino Wistar rat aortic ring assessed as Emax of [Ala1]U-II at 0.1 uM incubated for 30 mins in presence of [Ala1]U-II (reference value: 220.3 +/- 17.48 dyne/mg); format: functional, Aorta; conditions: 0.5 h
Aortic ring [20] = test: Induction of contraction in Albino Wistar rat aortic ring assessed as Emax of [Ala1]U-II at 10 uM incubated for 30 mins in presence of [Ala1]U-II (reference value: 153.3 +/- 10.75 dyne/mg); format: functional, Aorta; conditions: 0.5 h
Aortic ring [21] = test: Induction of contraction in Albino Wistar rat aortic ring at 1 to 30 nM relative to control; format: functional, Aorta; conditions: dose 1-30 nM
Aortic ring [22] = test: Induction of contraction in Albino Wistar rat aortic ring assessed as Emax of hU-II at 1 uM incubated for 30 mins in presence of hU-II (reference value: 224.8 +/- 11.71 dyne/mg); format: functional, Aorta; conditions: 0.5 h
Aortic ring [23] = test: Induction of contraction in Albino Wistar rat aortic ring assessed as Emax of hU-II at 0.1 uM incubated for 30 mins in presence of hU-II (reference value: 251.4 +/- 15.43 dyne/mg); format: functional, Aorta; conditions: 0.5 h
Aortic ring [24] = test: Induction of contraction in Albino Wistar rat aortic ring assessed as Emax of hU-II at 10 uM incubated for 30 mins in presence of hU-II (reference value: 214.5 +/- 10.51 dyne/mg); format: functional, Aorta; conditions: 0.5 h

Compound	Activity [1]	Activity ([1]; filed as modulator)	Activity (Aortic ring [2])	Emax (Aortic ring [6]) [dyn/mg]	Emax (Aortic ring [7]) [dyn/mg]	Emax (Aortic ring [8]) [dyn/mg]	Emax (Aortic ring [9]) [dyn/mg]	Emax (Aortic ring [10]) [dyn/mg]	Emax (Aortic ring [11]) [dyn/mg]	other results
CC(C)[C@H](NC(=O)[C@@H]1CSSC[C@H](NC(=O)[C@H](CC(=O)O)NC(=O)[C@@H]2CCCN2C(=O)[C@@H](NC(=O)[C@@H](N)CCC(=O)O)[C@@H](C)O)C(=O)N[C@@H](Cc2ccccc2)C(=O)N[C@@H](Cc2c[nH]c3ccccc23)C(=O)N[C@@H](CCCCN)C(=O)N[C@@H](Cc2ccc(O)cc2)C(=O)N1)C(=O)O [UROTENSIN-II]										Emax (Aortic ring [21]): 237.2 dyn/mg
CC(C)[C@H](NC(=O)[C@@H]1CSSC(C)(C)[C@H](NC(=O)[C@H](CC(=O)O)NC(=O)[C@@H]2CCCN2C(=O)[C@@H](NC(=O)[C@@H](N)CCC(N)=O)[C@@H](C)O)C(=O)N[C@@H](Cc2ccccc2)C(=O)N[C@H](Cc2c[nH]c3ccccc23)C(=O)N[C@@H](CCCN)C(=O)N[C@@H](Cc2ccc(O)cc2)C(=O)N1)C(=O)O		Active	inactive	265.4	215.7	164.2	218.8	295.9	46.4	Emax (Aortic ring [22]): 336.6 dyn/mg; Emax (Aortic ring [23]): 507.7 dyn/mg; Emax (Aortic ring [24]): 245.7 dyn/mg

Continued, in another order:

Activity [1]	Activity ([1]; filed as modulator)	Compound	Activity (Aortic ring [2])	Emax (Aortic ring [6]) [dyn/mg]	Emax (Aortic ring [7]) [dyn/mg]	Emax (Aortic ring [8]) [dyn/mg]	Emax (Aortic ring [9]) [dyn/mg]	Emax (Aortic ring [10]) [dyn/mg]	Emax (Aortic ring [11]) [dyn/mg]	other results
inactive		CC(C)[C@H](NC(=O)[C@@H]1CSSC(C)(C)[C@H](NC(=O)[C@@H](N)CC(=O)O)C(=O)N[C@@H](Cc2ccccc2)C(=O)N[C@H](Cc2c[nH]c3ccccc23)C(=O)N[C@@H](CCCN)C(=O)N[C@@H](Cc2ccc(O)cc2)C(=O)N1)C(=O)O (H-D[Pen]F[dW][Orn]YCV-OH; disulfide 2-7)	inactive							
inactive		CC(C)[C@H](NC(=O)[C@@H]1CSSC(C)(C)[C@H](NC(=O)[C@H](CC(=O)O)NC(=O)[C@@H]2CCCN2C(=O)[C@@H](NC(=O)[C@@H](N)CCN)[C@@H](C)O)C(=O)N[C@@H](Cc2ccccc2)C(=O)N[C@H](Cc2c[nH]c3ccccc23)C(=O)N[C@@H](CCCN)C(=O)N[C@@H](Cc2ccc(O)cc2)C(=O)N1)C(=O)O	inactive	98.9	166.4	119.5	141.2	99.6	38.23	Emax (Aortic ring [3]): 208.6 dyn/mg; Emax (Aortic ring [4]): 397 dyn/mg; Emax (Aortic ring [5]): 164 dyn/mg
	Active	CC(C)[C@H](NC(=O)[C@@H]1CSSC(C)(C)[C@H](NC(=O)[C@H](CC(=O)O)NC(=O)[C@@H]2CCCN2C(=O)[C@@H](NC(=O)[C@H](C)N)[C@@H](C)O)C(=O)N[C@@H](Cc2ccccc2)C(=O)N[C@H](Cc2c[nH]c3ccccc23)C(=O)N[C@@H](CCCN)C(=O)N[C@@H](Cc2ccc(O)cc2)C(=O)N1)C(=O)O	inactive							Emax (Aortic ring [12]): 264.3 dyn/mg; Emax (Aortic ring [13]): 320.8 dyn/mg; Emax (Aortic ring [14]): 315.6 dyn/mg; Emax (Aortic ring [15]): 248.2 dyn/mg; Emax (Aortic ring [16]): 541.8 dyn/mg; Emax (Aortic ring [17]): 263 dyn/mg; Emax (Aortic ring [18]): 121.9 dyn/mg; Emax (Aortic ring [19]): 373.5 dyn/mg; Emax (Aortic ring [20]): 285 dyn/mg
